According to US10448639B2, “Fungicidal pyrazoles” (FMC CORPORATION, priority 2009, dated 2019):
Read-outs that look alike come from different tables or passages of the source.

Assays:
[1] = test system: Puccinia recondita f. sp. tritici; assay: Test I: wheat leaf rust, preventive spray on wheat seedlings, visual disease rating; details: for pest or weed control at 200 µg/mL: 192 h
Botrytis cinerea = assay: Test B: tomato Botrytis, preventive spray on tomato seedlings, visual disease rating; details: for pest or weed control at 200 µg/mL: Botrytis cinerea, in Solanum lycopersicum, 120 h
Septoria nodorum = assay: Test F: Septoria glume blotch, preventive spray on wheat seedlings, visual disease rating; details: for pest or weed control at 200 µg/mL: Parastagonospora nodorum, in Triticum aestivum, 192 h
Source text: (§1) General protocol for preparing test suspensions for Tests A-J: the test compounds were first dissolved in acetone in an amount equal to 3% of the final volume and then suspended at the desired concentration (in ppm) in acetone and purified water (50/50 mix by volume) containing 250 ppm of the surfactant Trem® 014 (polyhydric alcohol esters). The resulting test suspensions were then used in Tests A-J. Spraying a 200 ppm test suspension to the point of run-off on the test plants was the equivalent of a rate of 500 g/ha. Unless otherwise indicated, the rating values indicate a 200 ppm test suspension was used. (An asterisk “*” next to the rating value indicates a 40 ppm test suspension was used.)
The test suspension was sprayed to the point of run-off on wheat seedlings. The following day the seedlings were inoculated with a spore suspension of Septoria nodorum (the causal agent of Septoria glume blotch) and incubated in a saturated atmosphere at 24° C. for 48 h, and then moved to a growth chamber at 20° C. for 6 days, after which time visual disease ratings were made.

Septoria tritici = assay: Test G: wheat leaf blotch, preventive spray on wheat seedlings, visual disease rating; details: for pest or weed control at 200 µg/mL: Zymoseptoria tritici, in Triticum aestivum, 504 h
[2] = test system: Puccinia recondita f. sp. tritici; assay: Test H: wheat leaf rust, curative spray on inoculated wheat seedlings, visual disease rating; details: for pest or weed control at 200 µg/mL: 144 h
[3] = test system: Erysiphe graminis f sp. tritici; assay: Test J: wheat powdery mildew, preventive spray on wheat seedlings, visual disease rating; details: for pest or weed control at 200 µg/mL: Blumeria graminis, in Triticum aestivum, 192 h
Source text: as §1
The test suspension was sprayed to the point of run-off on wheat seedlings. The following day the seedlings were inoculated with a spore dust of Erysiphe graminis f sp. tritici, (the causal agent of wheat powdery mildew) and incubated in a growth chamber at 20° C. for 8 days, after which time visual disease ratings were made.

Alternaria solani = assay: Test C: tomato early blight, preventive spray on tomato seedlings, visual disease rating; details: for pest or weed control at 200 µg/mL: Alternaria solani, in Solanum lycopersicum, 168 h
[4] = wheat leaf rust, preventive, 100 = 100% disease control, 0 = no control relative to controls
[5] = tomato Botrytis, 100 = 100% disease control, 0 = no control relative to controls
[6] = Septoria glume blotch, 100 = 100% disease control, 0 = no control relative to controls
[7] = wheat leaf blotch, 100 = 100% disease control, 0 = no control relative to controls
[8] = wheat leaf rust, curative, 100 = 100% disease control, 0 = no control relative to controls
[9] = wheat powdery mildew, 100 = 100% disease control, 0 = no control relative to controls
[10] = tomato early blight, 100 = 100% disease control, 0 = no control relative to controls
[11] = read-out: Test I rating (% disease control)
[12] = read-out: Test B rating (% disease control)
[13] = read-out: Test F rating (% disease control)
[14] = read-out: Test G rating (% disease control)
[15] = read-out: Test H rating (% disease control)
[16] = read-out: Test J rating (% disease control)
[17] = read-out: Test C rating (% disease control)
[18] = wheat leaf rust, preventive spray, 100 = 100% disease control, 0 = no control
[19] = tomato Botrytis, preventive spray, 100 = 100% disease control, 0 = no control
[20] = Septoria glume blotch on wheat, preventive spray, 100 = 100% disease control, 0 = no control
[21] = wheat leaf blotch, preventive spray, 100 = 100% disease control, 0 = no control
[22] = wheat leaf rust, curative spray, 100 = 100% disease control, 0 = no control
[23] = wheat powdery mildew, preventive spray, 100 = 100% disease control, 0 = no control
[24] = tomato early blight, preventive spray, 100 = 100% disease control, 0 = no control

Row | Compound | Test I rating (% disease control) [1, 4] | Test B rating (% disease control) (Botrytis cinerea; [5]) | Test F rating (% disease control) (Septoria nodorum; [6]) | Test G rating (% disease control) (Septoria tritici; [7]) | Test H rating (% disease control) [2, 8] | Test J rating (% disease control) [3, 9] | Test C rating (% disease control) (Alternaria solani; [10]) | also measured
1 | COc1ccc(-c2c(C)nn(C)c2Nc2c(F)ccc(F)c2F)c(Cl)c1 [compound 174] | 97% | 100% | 0% | 96% | 0% | 99% | 99% | 
2 | Cc1nn(C)c(Nc2c(F)cc(F)cc2F)c1-c1ccc(F)cc1F [Compound 41, 4-(2,4-difluorophenyl)-1,3-dimethyl-N-(2,4,6-trifluorophenyl)-1H-pyrazol-5-amine] |  |  |  |  |  |  |  | pest or weed control at 200 µg/mL [1, 11]: 100%; pest or weed control at 200 µg/mL (Botrytis cinerea; [12]): 100%; pest or weed control at 200 µg/mL (Septoria nodorum; [13]): 90%; pest or weed control at 200 µg/mL (Septoria tritici; [14]): 94%; pest or weed control at 200 µg/mL [2, 15]: 0%; pest or weed control at 200 µg/mL [3, 16]: 99%; pest or weed control at 200 µg/mL (Alternaria solani; [17]): 99%
3 | Cc1nn(C)c(Nc2c(F)cc(F)cc2F)c1-c1c(F)cccc1C(F)(F)F [compound 262] | 68% | 99% | 0% | 0% | 0% | 99% | 51% | 
4 | Cc1nn(C)c(Nc2c(F)cc(Br)cc2F)c1-c1ccc(F)cc1F [Compound 364, N-(4-bromo-2,6-difluorophenyl)-4-(2,4-difluorophenyl)-1,3-dimethyl-1H-pyrazol-5-amine] |  |  |  |  |  |  |  | pest or weed control at 200 µg/mL ([1]; read-out: Test I disease control rating): 99%; pest or weed control at 200 µg/mL (Botrytis cinerea; read-out: Test B disease control rating): 99%; pest or weed control at 200 µg/mL (Septoria nodorum; read-out: Test F disease control rating): 88%; pest or weed control at 200 µg/mL (Septoria tritici; read-out: Test G disease control rating): 100%; pest or weed control at 200 µg/mL ([2]; read-out: Test H disease control rating): 0%; pest or weed control at 200 µg/mL ([3]; read-out: Test J disease control rating): 100%; pest or weed control at 200 µg/mL (Alternaria solani; read-out: Test C disease control rating): 97%
5 | COc1ccc(Cl)c(-c2c(C)nn(C)c2Oc2c(F)cc(C#N)cc2F)c1 [compound 277] | 96% | 100% | 0% | 100% | 0% | 98% | 0% | 
6 | Cc1nn(C)c(Nc2ccc(Cl)cc2)c1-c1ccc(F)cc1F [compound 195] | 98% | 100% | 60% | 100% | 0% | 97% | 97% | 
7 | Cc1nn(C)c(Oc2ccc([N+](=O)[O-])cc2)c1-c1c(F)cc(F)cc1F [compound 26] |  |  |  |  |  |  |  | Test I rating (% disease control) [1, 18]: 99%; Test B rating (% disease control) (Botrytis cinerea; [19]): 99%; Test F rating (% disease control) (Septoria nodorum; [20]): 0%; Test G rating (% disease control) (Septoria tritici; [21]): 100%; Test H rating (% disease control) [2, 22]: 0%; Test J rating (% disease control) [3, 23]: 100%; Test C rating (% disease control) (Alternaria solani; [24]): 83%
8 | COc1cc(F)c(Nc2c(-c3cccc(Cl)c3)c(C)nn2C)c(F)c1 [compound 25] |  |  |  |  |  |  |  | Test I rating (% disease control) [1, 18]: 94%; Test B rating (% disease control) (Botrytis cinerea; [19]): 100%; Test F rating (% disease control) (Septoria nodorum; [20]): 0%; Test G rating (% disease control) (Septoria tritici; [21]): 100%; Test H rating (% disease control) [2, 22]: 0%; Test J rating (% disease control) [3, 23]: 79%; Test C rating (% disease control) (Alternaria solani; [24]): 0%
9 | COc1cc(F)c(-c2c(C)nn(C)c2Oc2ccc(C)c(C)c2)c(F)c1 [compound 210] | 94% | 0% | 0% | 100% | 99% | 99% | 0% | 
10 | Cc1nn(C)c(Nc2cnc(Cl)nc2)c1-c1ccc(F)cc1Cl [compound 268] | 74% | 95% | 0% | 99% | 0% | 0% | 93% | 
11 | COc1cc(F)c(-c2c(C)nn(C)c2Nc2ccc(F)cc2Cl)c(F)c1 [Compound 87, N-(2-chloro-4-fluorophenyl)-4-(2,6-difluoro-4-methoxyphenyl)-1,3-dimethyl-1H-pyrazol-5-amine] |  |  |  |  |  |  |  | pest or weed control at 200 µg/mL [1, 11]: 99%; pest or weed control at 200 µg/mL (Botrytis cinerea; [12]): 100%; pest or weed control at 200 µg/mL (Septoria nodorum; [13]): 95%; pest or weed control at 200 µg/mL (Septoria tritici; [14]): 98%; pest or weed control at 200 µg/mL [2, 15]: 85%; pest or weed control at 200 µg/mL [3, 16]: 100%; pest or weed control at 200 µg/mL (Alternaria solani; [17]): 100%
12 | COc1ccc(F)c(Nc2c(-c3c(F)cccc3F)c(C)nn2C)c1 [compound 216] | 26% | 96% | 0% | 76% | 0% | 99% | 0% | 
13 | Cc1nn(CC(=O)O)c(Oc2c(F)cc([N+](=O)[O-])cc2F)c1-c1c(F)cc(F)cc1F [compound 68] |  |  |  |  |  |  |  | Test I rating (% disease control) [1, 18]: 0%; Test B rating (% disease control) (Botrytis cinerea; [19]): 0%; Test F rating (% disease control) (Septoria nodorum; [20]): 0%; Test G rating (% disease control) (Septoria tritici; [21]): 0%; Test H rating (% disease control) [2, 22]: 6%; Test J rating (% disease control) [3, 23]: 0%; Test C rating (% disease control) (Alternaria solani; [24]): 0%
14 | Cc1nn(C)c(Oc2c(F)cc(C#N)cc2F)c1-c1cc(Cl)ccc1Cl [compound 275] | 97% | 97% | 0% | 99% | 8% | 99% | 46% | 
15 | COc1cc(F)c(-c2c(C)nn(C)c2Oc2ccc(Cl)c(C)c2)c(F)c1 [compound 185] | 74% | 0% | 0% | 100% | 0% | 98% | 0% | 
16 | COc1ccc(-c2c(C)nn(C)c2Nc2cc(F)ccc2F)c(Cl)c1 [compound 176] | 68% | 100% | 0% | 96% | 0% | 100% | 71% | 
17 | Cc1nn(C)c(Nc2ccc(F)cc2)c1-c1c(F)cccc1C(F)(F)F [compound 254] | 0% | 100% | 0% | 84% | 0% | 64% | 0% | 
18 | Cc1nn(C)c(Nc2ncc(Cl)cc2Cl)c1-c1cccc(Cl)c1Cl [compound 303] |  |  |  |  |  |  |  | Test I disease control rating ([1]; wheat leaf rust, sprayed the day before inoculation, 100 = 100% disease control, 0 = no disease control relative to controls): 92%; Test B disease control rating (Botrytis cinerea; tomato Botrytis, 100 = 100% disease control, 0 = no disease control relative to controls): 99%; Test F disease control rating (Septoria nodorum; Septoria glume blotch on wheat, 100 = 100% disease control, 0 = no disease control relative to controls): 0%; Test G disease control rating (Septoria tritici; wheat leaf blotch, sprayed the day before inoculation, 100 = 100% disease control, 0 = no disease control relative to controls): 98%; Test H disease control rating ([2]; wheat leaf rust, sprayed after inoculation, 100 = 100% disease control, 0 = no disease control relative to controls): 0%; Test J disease control rating ([3]; wheat powdery mildew, sprayed the day before inoculation, 100 = 100% disease control, 0 = no disease control relative to controls): 71%; Test C disease control rating (Alternaria solani; tomato early blight, 100 = 100% disease control, 0 = no disease control relative to controls): 0%
19 | Cc1nn(C)c(Nc2ccc(F)cc2F)c1-c1c(F)cc(C#N)cc1F [compound 106] |  |  |  |  |  |  |  | Test I rating (% disease control) [1, 18]: 99%; Test B rating (% disease control) (Botrytis cinerea; [19]): 100%; Test F rating (% disease control) (Septoria nodorum; [20]): 90%; Test G rating (% disease control) (Septoria tritici; [21]): 100%; Test H rating (% disease control) [2, 22]: 82%; Test J rating (% disease control) [3, 23]: 100%; Test C rating (% disease control) (Alternaria solani; [24]): 99%
